Measurements taken from US5368712A, “Biologically mimetic synthetic ion channel transducers” (Synporin Technologies, Inc., priority 1990, dated 1994).
“And” between values parts separate entries of the source, which are not always exact repeats. Equal entries are not always repeated. “Also recorded” adds a separate entry of the source.

How the values were obtained:
[1] = Single channel recordings of synthetic channel proteins in lipid bilayers; conditions: for formation of ionic channels in lipid bilayers: single channel recordings in lipid bilayers
Procedure: Using established recording, filtering, digitizing and data processing techniques, single channel recording were made of single channel recordings for tethered tetrameric M2δ proteins and free M2δ proteins (FIGS. 7 and 8 respectively). Conductance (V) and lifetime (T) values were determined from a multiplicity of events, and single channel open and closed lifetimes were discriminated using a published pattern recognition algorithm.
These recordings were made in symmetric 0.5M KCl (pH 7.4) and recorded at 100 mV. […] These were recorded at 0.5M NaCl (pH 7.2) and 100 mV.
Planar lipid bilayers into which the synthetic ion protein channels can be incorporated are prepared using commonly available and well understood lipids and bilayer formation techniques. For example, planar bilayers can be formed by hydrophobic apposition of two lipid monolayers initially formed at an air-water interface. The electrical properties of such protein-free bilayers can be examined using known techniques. Peptides can be incorporated into the bilayers from mixed lipid-peptide monolayers.

[2] = molecular target: T1, tetrameric M2δ synthetic porin (Tetronarce californica, UniProt P02718); assay: Block of tetrameric M2δ synthetic porin by a local anaesthetic derivative, single channel recordings; assay type: biochemical, Torpedo californica; conditions: 25 μM QX-222
T1 construct: multi-functional carrier template (peptide backbone of at least seven amino acids with four basic attachment residues); made in house; host or cells: chemical peptide synthesis (no expression host)
Procedure: Furthermore, the pharmacological specificity of the pure structure generated by the tetrameric M2δ synthetic porin was examined by using a quaternary derivative (QX-222) of the local anaesthetic lidocaine. QX-222 is known to transiently block the flow of current through the AChR channel, thereby reducing the channel open lifetime. FIGS. 9A and […] show comparative single channel recordings of this synthetic porin before (FIG. 9A) and after (FIG. 9B) addition of 25 μM QX-222. The result is that the characteristic brief and long open lifetimes exist prior to application of the anaesthetic, as previously shown in FIG. 7.

9 amino acid backbone used as template: nine-residue carrier template K K K P G K E K G without attached oligopeptides (KKKPGKEKG)
formation of ionic channels in lipid bilayers [1]: showed similar activity

Cc1cccc(C)c1NC(=O)C[N+](C)(C)C [QX-222]
effect on channel open time [2]: drastically shortened | effect on single channel conductance V [2]: virutally unaffected

EKMSTAISVLLAQAVFLLLTSQR [free (monomeric) M2δ, untethered 23-mer synthetic peptide mimicking the acetylcholine receptor M2δ subunit]
single channel conductance V of distinct events ([1]; 0.5M NaCl (pH 7.2), 100 mV): 20 pS and 40 pS | formation of ionic channels in lipid bilayers [1]: form discrete ion channels in lipid bilayers; also recorded: forms channels of heterogeneous amplitudes and open lifetimes

XPDWNWLDFTVITFAYVTEFVDL [22-residue synthetic peptide that mimics the electrical properties of a voltage dependent sodium channel]
selectivity cations versus anions [1]: discriminates cations over anions | selectivity sodium ion versus potassium ion [1]: nonselective between sodium ion and potassium ion | single channel open and close lifetimes [1]: in the millisecond time range | voltage dependence [1]: no specific voltage dependence | single channel conductance of the most frequent event ([1]; 0.5M sodium chloride): 20 pS
